# Source: ChEMBL document CHEMBL5715954, “Silencing c-Myc translation as a therapeutic strategy through targeting PI3Kδ and CK1ε in hematological malignancies” (Blood, 2017)
# Experiments:
# Parameters in all cases: scale not given: the % may be the effect or the level left
# [1] = target: Protein-tyrosine kinase 2-beta (Homo sapiens) (UniProt Q14289); assay: Inhibition of human PYK2 assessed as enzyme activity at 1 uM using poly[Glu:Tyr] (4:1) as substrate preincubated for 20 mins followed by [gamma-33P]-ATP addition and measured after 120 mins by radiometric Hot-SpotSM Kinase assay relative to control
# Protein-tyrosine kinase 2-beta (Homo sapiens), sequence (Q14289 whole entry, looked up): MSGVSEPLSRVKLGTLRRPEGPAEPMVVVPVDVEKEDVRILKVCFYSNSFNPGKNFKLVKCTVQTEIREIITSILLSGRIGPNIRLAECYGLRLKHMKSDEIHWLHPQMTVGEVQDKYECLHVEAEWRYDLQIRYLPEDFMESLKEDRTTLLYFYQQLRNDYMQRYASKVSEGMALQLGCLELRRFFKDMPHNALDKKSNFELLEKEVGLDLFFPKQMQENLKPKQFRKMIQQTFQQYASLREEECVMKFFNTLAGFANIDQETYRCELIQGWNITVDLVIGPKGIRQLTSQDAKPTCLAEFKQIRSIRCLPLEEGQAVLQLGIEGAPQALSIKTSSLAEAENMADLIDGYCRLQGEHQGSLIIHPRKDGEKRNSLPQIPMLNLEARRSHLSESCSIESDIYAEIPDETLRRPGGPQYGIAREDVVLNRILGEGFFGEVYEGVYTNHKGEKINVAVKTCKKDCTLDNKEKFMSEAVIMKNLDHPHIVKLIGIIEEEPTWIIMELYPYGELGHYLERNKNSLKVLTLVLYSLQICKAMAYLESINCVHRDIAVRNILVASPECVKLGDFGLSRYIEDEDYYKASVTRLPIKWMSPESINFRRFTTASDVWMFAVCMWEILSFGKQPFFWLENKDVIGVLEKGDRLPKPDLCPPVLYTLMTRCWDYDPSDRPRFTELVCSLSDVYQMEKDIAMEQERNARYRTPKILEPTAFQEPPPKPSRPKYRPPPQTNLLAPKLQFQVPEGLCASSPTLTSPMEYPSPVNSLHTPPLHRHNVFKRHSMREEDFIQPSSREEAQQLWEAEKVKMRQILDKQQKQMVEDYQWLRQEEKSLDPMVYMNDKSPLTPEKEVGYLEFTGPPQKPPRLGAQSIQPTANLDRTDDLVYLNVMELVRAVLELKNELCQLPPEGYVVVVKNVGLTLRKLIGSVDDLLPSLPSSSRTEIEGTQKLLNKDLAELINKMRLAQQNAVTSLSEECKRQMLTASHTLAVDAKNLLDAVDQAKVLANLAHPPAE
# [2] = target: Homeodomain-interacting protein kinase 2 (Homo sapiens) (UniProt Q9H2X6); assay: Inhibition of human HIPK2 assessed as enzyme activity at 1 uM using myelin basic protein as substrate preincubated for 20 mins followed by [gamma-33P]-ATP addition and measured after 120 mins by radiometric Hot-SpotSM Kinase assay relative to control
# Homeodomain-interacting protein kinase 2 (Homo sapiens), sequence (Q9H2X6 whole entry, looked up): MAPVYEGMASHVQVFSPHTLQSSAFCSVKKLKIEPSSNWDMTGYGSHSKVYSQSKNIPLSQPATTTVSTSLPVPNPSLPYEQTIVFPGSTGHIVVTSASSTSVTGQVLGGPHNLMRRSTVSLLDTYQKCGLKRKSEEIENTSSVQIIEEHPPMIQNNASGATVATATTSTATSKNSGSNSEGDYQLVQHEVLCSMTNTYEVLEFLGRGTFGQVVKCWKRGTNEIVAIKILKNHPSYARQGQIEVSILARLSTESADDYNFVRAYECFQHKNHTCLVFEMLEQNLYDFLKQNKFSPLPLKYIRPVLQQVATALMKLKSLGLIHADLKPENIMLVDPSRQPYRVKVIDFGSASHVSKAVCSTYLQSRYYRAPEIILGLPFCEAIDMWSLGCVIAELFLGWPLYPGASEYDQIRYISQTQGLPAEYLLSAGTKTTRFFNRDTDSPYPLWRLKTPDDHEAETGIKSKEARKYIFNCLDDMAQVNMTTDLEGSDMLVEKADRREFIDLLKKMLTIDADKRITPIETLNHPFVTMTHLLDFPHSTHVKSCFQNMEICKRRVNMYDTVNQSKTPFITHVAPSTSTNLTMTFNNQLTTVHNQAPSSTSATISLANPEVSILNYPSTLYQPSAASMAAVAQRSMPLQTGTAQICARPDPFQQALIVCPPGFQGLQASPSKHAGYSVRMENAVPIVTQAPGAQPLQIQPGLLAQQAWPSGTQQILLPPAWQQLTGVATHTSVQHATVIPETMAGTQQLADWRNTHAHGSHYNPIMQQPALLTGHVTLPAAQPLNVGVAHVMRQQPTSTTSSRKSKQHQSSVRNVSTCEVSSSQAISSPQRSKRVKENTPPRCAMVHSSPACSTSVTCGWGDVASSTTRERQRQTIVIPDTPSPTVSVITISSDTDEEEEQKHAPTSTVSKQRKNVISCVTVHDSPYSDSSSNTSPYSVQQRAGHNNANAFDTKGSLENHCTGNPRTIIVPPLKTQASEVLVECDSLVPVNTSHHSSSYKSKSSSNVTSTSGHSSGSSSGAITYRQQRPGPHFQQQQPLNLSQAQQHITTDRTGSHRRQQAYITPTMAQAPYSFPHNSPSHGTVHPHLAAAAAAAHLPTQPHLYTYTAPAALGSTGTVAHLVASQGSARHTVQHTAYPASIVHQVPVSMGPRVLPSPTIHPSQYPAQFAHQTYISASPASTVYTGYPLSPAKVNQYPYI
# [3] = target: Aurora kinase B (Homo sapiens) (UniProt Q96GD4); assay: Inhibition of human Aurora B assessed as enzyme activity at 1 uM using H-LRRASLG as substrate preincubated for 20 mins followed by [gamma-33P]-ATP addition and measured after 120 mins by radiometric Hot-SpotSM Kinase assay relative to control
# Aurora kinase B (Homo sapiens), sequence (Q96GD4 whole entry): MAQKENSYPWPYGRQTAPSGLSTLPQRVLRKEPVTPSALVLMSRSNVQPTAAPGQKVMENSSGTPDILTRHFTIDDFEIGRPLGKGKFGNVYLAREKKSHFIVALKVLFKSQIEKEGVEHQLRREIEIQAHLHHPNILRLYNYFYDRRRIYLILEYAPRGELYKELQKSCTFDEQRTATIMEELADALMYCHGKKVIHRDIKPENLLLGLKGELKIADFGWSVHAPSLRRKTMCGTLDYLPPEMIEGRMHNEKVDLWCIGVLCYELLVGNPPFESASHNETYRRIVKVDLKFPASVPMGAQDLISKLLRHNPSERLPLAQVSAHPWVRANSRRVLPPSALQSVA
# [4] = target: CDK17/Cyclin-Y (Homo sapiens) (UniProt Q00537+Q8ND76); assay: Inhibition of human CDK17/cyclin Y assessed as enzyme activity at 1 uM using myelin basic protein as substrate preincubated for 20 mins followed by [gamma-33P]-ATP addition and measured after 120 mins by radiometric Hot-SpotSM Kinase assay relative to control; assay type: protein-complex assay
# CDK17/Cyclin-Y (Homo sapiens), sequence (Q00537 whole entry): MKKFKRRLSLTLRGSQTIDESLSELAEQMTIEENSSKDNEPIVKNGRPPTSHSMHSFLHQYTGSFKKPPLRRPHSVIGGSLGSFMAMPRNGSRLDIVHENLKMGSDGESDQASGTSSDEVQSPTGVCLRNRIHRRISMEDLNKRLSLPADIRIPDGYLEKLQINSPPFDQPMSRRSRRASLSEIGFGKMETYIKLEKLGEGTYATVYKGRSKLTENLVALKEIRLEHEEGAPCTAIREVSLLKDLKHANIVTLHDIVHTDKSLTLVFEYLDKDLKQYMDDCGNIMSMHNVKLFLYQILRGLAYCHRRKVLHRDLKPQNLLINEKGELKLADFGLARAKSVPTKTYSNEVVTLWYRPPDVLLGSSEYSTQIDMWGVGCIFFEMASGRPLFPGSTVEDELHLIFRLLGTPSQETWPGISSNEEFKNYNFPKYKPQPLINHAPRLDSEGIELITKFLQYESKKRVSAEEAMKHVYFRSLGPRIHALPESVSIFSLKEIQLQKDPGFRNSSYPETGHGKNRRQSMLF
# CDK17/Cyclin-Y (Homo sapiens), sequence (Q8ND76 2-341 partner limits assumed): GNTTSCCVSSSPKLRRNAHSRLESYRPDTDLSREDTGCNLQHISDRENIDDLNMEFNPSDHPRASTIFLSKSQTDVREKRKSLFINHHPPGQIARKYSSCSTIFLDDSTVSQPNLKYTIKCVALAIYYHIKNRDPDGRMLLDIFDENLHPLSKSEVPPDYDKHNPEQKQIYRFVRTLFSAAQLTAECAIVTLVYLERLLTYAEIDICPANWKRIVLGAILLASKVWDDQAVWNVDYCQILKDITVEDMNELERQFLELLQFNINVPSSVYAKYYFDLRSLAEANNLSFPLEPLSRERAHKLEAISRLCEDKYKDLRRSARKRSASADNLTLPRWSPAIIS
# [5] = target: T1, TGF-beta receptor type-1 (Homo sapiens) (UniProt P36897); assay: Inhibition of human ALK5 assessed as enzyme activity at 1 uM using casein as substrate preincubated for 20 mins followed by [gamma-33P]-ATP addition and measured after 120 mins by radiometric Hot-SpotSM Kinase assay relative to control
# T1 sequence (whole entry): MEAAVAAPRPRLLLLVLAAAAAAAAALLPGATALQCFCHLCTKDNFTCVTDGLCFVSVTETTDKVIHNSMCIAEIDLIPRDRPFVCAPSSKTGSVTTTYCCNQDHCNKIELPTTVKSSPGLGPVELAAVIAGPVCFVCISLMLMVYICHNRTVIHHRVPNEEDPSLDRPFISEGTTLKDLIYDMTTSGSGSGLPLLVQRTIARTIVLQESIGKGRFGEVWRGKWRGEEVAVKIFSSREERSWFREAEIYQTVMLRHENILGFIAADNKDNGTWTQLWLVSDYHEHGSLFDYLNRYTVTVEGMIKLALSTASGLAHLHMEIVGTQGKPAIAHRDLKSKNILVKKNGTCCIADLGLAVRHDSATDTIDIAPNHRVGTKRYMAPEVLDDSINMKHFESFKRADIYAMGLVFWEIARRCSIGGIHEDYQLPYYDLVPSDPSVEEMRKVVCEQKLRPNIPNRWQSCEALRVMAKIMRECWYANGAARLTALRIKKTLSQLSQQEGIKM
# [6] = target: Tyrosine-protein kinase CSK (Homo sapiens) (UniProt P41240); assay: Inhibition of human CSK assessed as enzyme activity at 1 uM using poly[Glu:Tyr] (4:1) as substrate preincubated for 20 mins followed by [gamma-33P]-ATP addition and measured after 120 mins by radiometric Hot-SpotSM Kinase assay relative to control
# Tyrosine-protein kinase CSK (Homo sapiens), sequence (P41240 2-450 limits assumed): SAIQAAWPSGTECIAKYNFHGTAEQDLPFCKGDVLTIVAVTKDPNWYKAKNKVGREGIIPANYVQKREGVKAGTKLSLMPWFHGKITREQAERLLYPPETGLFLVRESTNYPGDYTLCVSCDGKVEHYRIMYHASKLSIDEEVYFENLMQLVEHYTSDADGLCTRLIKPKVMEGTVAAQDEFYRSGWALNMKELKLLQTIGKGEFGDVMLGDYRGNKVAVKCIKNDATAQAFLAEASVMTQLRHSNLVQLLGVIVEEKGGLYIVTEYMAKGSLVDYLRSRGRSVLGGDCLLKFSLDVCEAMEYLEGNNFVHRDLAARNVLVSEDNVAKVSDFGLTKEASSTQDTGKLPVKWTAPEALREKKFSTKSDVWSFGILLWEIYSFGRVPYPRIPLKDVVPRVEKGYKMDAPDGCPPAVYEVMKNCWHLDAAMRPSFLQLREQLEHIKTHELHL
# [7] = target: Cyclin-dependent kinase 5/CDK5 activator 1 (Homo sapiens) (UniProt Q00535+Q15078); assay: Inhibition of human CDK5/p25 assessed as enzyme activity at 1 uM using RB Protein as substrate preincubated for 20 mins followed by [gamma-33P]-ATP addition and measured after 120 mins by radiometric Hot-SpotSM Kinase assay relative to control; assay type: protein-complex assay
# Cyclin-dependent kinase 5/CDK5 activator 1 (Homo sapiens), sequence (Q00535 whole entry): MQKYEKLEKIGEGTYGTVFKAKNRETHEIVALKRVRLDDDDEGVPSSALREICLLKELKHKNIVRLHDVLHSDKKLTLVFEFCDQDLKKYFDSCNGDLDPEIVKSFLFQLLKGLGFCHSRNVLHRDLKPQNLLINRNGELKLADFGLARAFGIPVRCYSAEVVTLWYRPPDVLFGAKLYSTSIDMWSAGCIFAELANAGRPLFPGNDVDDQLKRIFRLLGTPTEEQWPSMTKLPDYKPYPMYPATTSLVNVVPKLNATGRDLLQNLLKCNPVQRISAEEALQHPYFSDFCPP
# Cyclin-dependent kinase 5/CDK5 activator 1 (Homo sapiens), sequence (Q15078 99-307 partner limits assumed): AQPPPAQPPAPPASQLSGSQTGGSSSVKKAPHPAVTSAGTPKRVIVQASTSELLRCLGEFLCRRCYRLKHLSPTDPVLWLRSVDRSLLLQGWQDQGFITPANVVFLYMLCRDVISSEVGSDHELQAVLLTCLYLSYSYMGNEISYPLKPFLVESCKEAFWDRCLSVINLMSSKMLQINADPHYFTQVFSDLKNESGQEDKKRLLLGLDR
# [8] = target: T2, Kinase suppressor of Ras 1 (Homo sapiens) (UniProt Q8IVT5); assay: Inhibition of human KSR1 assessed as enzyme activity at 1 uM using KRREILSRRPSYR as substrate preincubated for 20 mins followed by [gamma-33P]-ATP addition and measured after 120 mins by radiometric Hot-SpotSM Kinase assay relative to control
# T2 sequence (whole entry): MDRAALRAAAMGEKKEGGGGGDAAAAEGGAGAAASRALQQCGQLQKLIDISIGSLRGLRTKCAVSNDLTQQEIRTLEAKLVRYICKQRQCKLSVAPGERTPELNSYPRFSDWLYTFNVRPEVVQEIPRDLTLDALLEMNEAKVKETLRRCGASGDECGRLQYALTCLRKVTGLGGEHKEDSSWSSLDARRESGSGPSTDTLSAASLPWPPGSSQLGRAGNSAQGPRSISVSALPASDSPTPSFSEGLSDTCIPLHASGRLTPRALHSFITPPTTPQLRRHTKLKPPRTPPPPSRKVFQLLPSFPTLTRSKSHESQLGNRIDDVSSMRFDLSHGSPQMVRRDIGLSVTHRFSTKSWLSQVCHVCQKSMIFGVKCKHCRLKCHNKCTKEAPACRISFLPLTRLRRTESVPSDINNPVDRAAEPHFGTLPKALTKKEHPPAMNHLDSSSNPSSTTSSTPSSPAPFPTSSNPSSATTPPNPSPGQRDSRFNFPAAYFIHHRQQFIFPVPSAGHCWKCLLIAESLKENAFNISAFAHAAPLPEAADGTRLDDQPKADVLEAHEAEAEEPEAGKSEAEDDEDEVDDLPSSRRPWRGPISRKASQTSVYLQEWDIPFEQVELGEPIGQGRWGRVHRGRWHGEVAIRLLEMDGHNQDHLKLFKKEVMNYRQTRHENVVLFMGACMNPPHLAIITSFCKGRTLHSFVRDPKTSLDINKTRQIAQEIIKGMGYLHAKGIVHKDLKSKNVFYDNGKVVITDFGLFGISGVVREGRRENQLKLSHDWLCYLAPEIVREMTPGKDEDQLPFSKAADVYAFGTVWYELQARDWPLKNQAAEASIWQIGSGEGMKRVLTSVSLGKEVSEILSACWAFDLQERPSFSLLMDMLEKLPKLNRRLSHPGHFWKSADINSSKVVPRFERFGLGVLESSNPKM
SMILES,Activity [1] [%],Activity [2] [%],Activity [3] [%],Activity [4] [%],Activity [5] [%],Activity [6] [%],Activity [7] [%],Activity [8] [%]
CC[C@H](Nc1ncnc2[nH]cnc12)c1nc2cccc(F)c2c(=O)n1-c1ccccc1,101,100,95.6,96.5,108,99.1,99.8,102
C[C@H](Nc1ncnc2nc[nH]c12)c1cc2cccc(Cl)c2c(=O)n1-c1ccccc1,99.5,100,95.6,97.2,108,97.9,92.7,99.2
CC(C)Oc1ccc(-c2nn([C@@H](C)c3oc4ccc(F)cc4c(=O)c3-c3cccc(F)c3)c3ncnc(N)c23)cc1F [UMBRALISIB],102,107,97.2,100,109,94.1,90.3,103
